Assay results published in patent US8202893B2, “Cannabinergic lipid ligands” (University of Connecticut, priority 2004, dated 2012).
Where two headings read alike, the source gives them in different places.

Legend:
[1] = target: T1, Mag-lipase (Rattus norvegicus, UniProt Q8R431); assay: Inhibition of MAG-lipase: 2-AG metabolism to arachidonic acid; type: biochemical; conditions: 20 min, 30 nmoles compound with 30 nmoles 2-AG, 30 μg enzyme, 300 μL
T1 construct: supernatant from final spin in the anandamide amidase preparation; from tissue; host or cells: supernatant (soluble fraction) of the anandamide amidase preparation, rat brain by the cited procedure
T1 sequence (Q8R431 1-303): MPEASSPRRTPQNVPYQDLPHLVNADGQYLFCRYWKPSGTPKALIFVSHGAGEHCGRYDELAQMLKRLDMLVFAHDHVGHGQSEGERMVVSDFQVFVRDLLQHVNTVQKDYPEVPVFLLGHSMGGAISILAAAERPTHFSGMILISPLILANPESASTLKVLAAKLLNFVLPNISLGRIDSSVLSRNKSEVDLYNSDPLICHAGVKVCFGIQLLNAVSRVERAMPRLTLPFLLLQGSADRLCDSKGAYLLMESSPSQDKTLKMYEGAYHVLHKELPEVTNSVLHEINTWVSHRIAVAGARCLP
Description: All compound solutions were made to a concentration of 10 mM in DMSO. Three tests were performed on each compound: hydrolysis, to determine the stability of the compound in assay conditions without the enzyme present; metabolism, to determine the stability of the compound with the enzyme present; and inhibition of 2-Arachidonoyl glycerol (native substrate) metabolism to arachidonic acid.
The inhibition of 2-AG metabolism was measured by mixing 30 nmoles of the compound with 30 nmoles 2-AG, and 30 μg enzyme preparation in TME buffer (final volume of 300 μL). Again the reaction mixture was treated in the same manner as described above and the concentrations of 2-AG and AA were calculated using external standards. Percent inhibition was calculated using the following equation: % Inhib.=(AA20-AA0)i/(AA20-AA0)s where (AA20-AA0)i is the amount of arachidonic acid formed over 20 minutes from 2-AG with the inhibitor present and (AA20-AA0)s is the amount of arachidonic acid formed over 20 minutes from 2-AG when the inhibitor is not present. […] The reaction mixtures were treated as described above and the amount of AA formed was calculated. The software package GraphPad Prism was utilized to calculate IC50 and Ki. HPLC Conditions:
Chromatographic separation was achieved using an Ultrasphere ODS Pre-column (4.6×45 mm) from Beckman. Hardware consisted of a Waters Millennium HPLC system with a 20 μL injection loop. The mobile phase consisted of 8.5% o-phosphoric acid:acetonitrile (3:7), run isocratically at a rate of 1 mL/min and detection at 204 nm. The total run time was 8 minutes with 2-AG eluting at 3.0 minutes and AA at 6.0 minutes.

[2] = test system: anandamide transporter; assay: [3H]Anandamide transporter competition assay; type: cell-based; conditions: human CCF-STG1 astrocytoma cells, 10 nM [3H]anandamide
Description: Human CCF-STG1 astrocytoma cells (American Type Culture collection) were grown in RPMI1640 culture medium containing 2 mM L-glutamine, 4.5 g/L glucose, 10 mM HEPES, and 1.0 mM sodium pyruvate, 10% FBS, cultures at 37° C. with 5% CO2. For standard competition assays, confluent cells grown in 24-well plates were rinsed and preincubated for 10 min at 37° C. in assay buffer (Hank's Balanced Salt Solution containing 0.1% DMSO, 10 mM HEPES) plus test compounds (at their final concentrations of 0.01-100 μM). After having discarded the preincubation media, the cells were incubated for 4 min in 0.2 ml assay buffer containing 10 nM [^3H] anandamide (137.6 Ci/mmol, New England Nuclear) plus test compounds. Reactions were stopped by removing the incubation media and rinsing the cells three times with 0.5 ml of ice-cold HBSS buffer containing 0.1% fatty acid-free Bovine Serum Albumin (sigma). Radioactive material in Triton X-100 cell extracts was measured by liquid scintillation counting. A minimum of three independent experiments conducted in six replicates was used to define the concentration needed to produce half-maximal inhibition (IC50) for each compound. IC50 values were obtained by nonlinear regression fitting of the data, using the PRIZM software package. Data are expressed as mean±SEM.

SMILES | inhibition at 100 µM [1] | IC50 ([2]; read-out: IC50 AT inhibition) | IC50 ([2]; read-out: IC50 (AT inhib.)) | Mag-Lipase % Inhibition [1]
O=C(CCC/C=C\C/C=C\C/C=C\C/C=C\CCCCc1ccccc1)NCC1CC1 [Compound A1] | 20.5% | – | – | –
O=C(CCC/C=C\C/C=C\C/C=C\C/C=C\CCc1ccccc1)NCC1CC1 [Compound A2] | 37.5% | – | – | –
O=C(CCC/C=C\C/C=C\C/C=C\C/C=C\CCc1ccccc1)Nc1ccc(O)cc1 [Compound A3] | 16.7% | 9.1 µM | – | –
O=C(CCC/C=C\C/C=C\C/C=C\C/C=C\CCc1ccccc1)Nc1nccs1 [Compound A4] | 9.2% | – | – | –
[N-]=[N+]=NCCCC/C=C\C/C=C\C/C=C\C/C=C\CCCC(=O)NCC1CC1 [Compound A6] | 20.7% | – | – | –
COc1cc(CNC(=O)CCC/C=C\C/C=C\C/C=C\C/C=C\CCCCN=[N+]=[N-])ccc1O [Compound A7] | 13.7% | – | – | –
O=C(CCC/C=C\C/C=C\C/C=C\C/C=C\CCCCCBr)NC1CC1 [Compound A18] | 22.5% | 6.7 µM | – | –
CCCCCC=CCC=CCC=CCC=CCCCCOC(=O)NCC(C)O (centres unmarked) [Compound B3] | – | – | 1.5 µM | 14.3%
CCCCC/C=C\C/C=C\C/C=C\C/C=C\CCCCNC(=O)NC[C@H](C)O [Compound B12] | 11.1% | – | 1.78 µM | –
CCCCC/C=C\C/C=C\CCCCCCCCOC(=O)NC[C@H](C)O [Compound B14] | – | – | 7.21 µM | 25.8%
CC/C=C\C/C=C\C/C=C\CCCCCCCCOC(=O)NC[C@H](C)O [Compound B15] | – | – | 4.5 µM | 24.6%
